# In patent publication US4459227A, “Para-hydroxyphenylhydrazines as in situ precursors of iminoquinones and quinones” (Duke University, priority 1981, dated 1984):
# Columns and labels:
# [1] = Spectral study of rearrangement/reactions with nucleophiles, reducing and oxidizing agents; assay type: physicochemical; settings: for Final Maximum (nm): pH 8-9, ten-fold excess
# Description: In order to characterize the products of hydrolysis of AA-CHP's, the hydrolysis of Leu-CHP by LAP was studied by absorption spectrophotometry. […] This was also true for the new maximum at 350 nm and for a second new "maximum" which appeared as a low, broad "peak" merging with 350 peak and centered at about 400 nm. However, by 22 minutes (not shown) the absorbance at 300 and 400 nm had diminished in intensity while the 350 maximum continued to increase, albeit at a slower rate. At pH 7.0 (FIG. 8B), the absorbance at 300 nm continued to slowly increase in intensity even up to 90 minutes after dissolving CHP-OEt (0.2 mg) in DMSO (0.02 ml) into 0.05M Phosphate buffer (3 ml). Furthermore, a second maximum at 350 nm developed but it remaind smaller in intensity than the 300 nm peak.
# Table 2 summarizes the results of several separate experiments involving the reactions of CHP-OEt, CHA-OEt, pIQ-OEt and pBQ (0.5-1.0 mM) with various nucleophiles (lysine, 3-MPA) reducing agents (NaBH4, 3-MPA) and oxidizing agents (NaIO4, O2) in ten-fold molar excess in Tris-HCl buffer (0.05M, pH 9.0).
# In these studies, CHP-OEt, CHA-OEt and pBQ* were all pure compounds, thus, their absorption could be unequivocably assigned, pIQ-OEt was generated by the autoxidation of CHA-OEt in solution and its presence was noted by the appearance of one absorbance maximum at 400 nm and the development of a distinct yellow color to a previously clear solution of CHA-OEt. […] On the other hand, there was a dissimilarity between the spectra of CHP-OEt and CHA-OEt. CHA-OEt was oxidized by O2 or NaIO4 to the pIQ-OEt with a λmax =400 nm whereas NaIO4 had no effect on the rate or nature of spectral change that occurred when . . .
# Salmonella typhosa = settings: 1911; cited from earlier work
# fungi = settings: cited from earlier work
# blue-green algae = settings: cited from earlier work
# liver = settings: cited from earlier work
# phage (viral) infections = settings: tissue cultures, p-benzoquinone generated in situ; cited from earlier work
compound,measurement,setting,value
"O=C1C=CC(=O)C=C1 [pBQ, p-Benzoquinone, reference compound]",Final Maximum (nm),[1]; compound added: 3-MPA,300 nm
same,Final Maximum (nm),[1]; compound added: Lysine,350 nm
same,Initial Maximum (nm),[1]; pH 8-9,240 nm
same,peak appearing only after several hours with 3-MPA,"[1]; ten-fold excess 3-MPA, pH 9.0",350 nm
same,initial peak with lysine (rapidly diminished),"[1]; ten-fold excess lysine, pH 9.0",300 nm
same,bactericidal activity,Salmonella typhosa,potent bactericidal substance
"O=C1C(Cl)=C(Cl)C(=O)C(Cl)=C1Cl [chloranil, 2,3,5,6-tetrachloro-1,4-benzoquinone]",antifungal properties,fungi,marked antifungal properties
"O=C1C(Cl)=C(Cl)C(=O)c2ccccc21 [2,3-dichloro-1,4-naphthoquinone]",inhibition of blue-green algae,blue-green algae,inhibited
CC(=O)N=C1C=CC(=O)C=C1 [N-acetyl-p-iminobenzoquinone],toxic effects in the liver,liver,responsible for the toxic effects in the liver
Oc1ccc(O)cc1 [p-benzohydroquinone],prevention of phage (viral) infections,phage (viral) infections,prevent phage (viral) infections from proliferating
